The source of these data is the NIST ThermoML archive (doi:10.1016/j.fluid.2013.01.004).

Data set [1] in a line: refractive index (Na D-line) (dimensionless); wn = mass fraction of the nth substance listed. The following applies: 323.15 K, 101 kPa, Liquid, Standard Abbe refractometry.
Data set [2] in a line: wn = mass fraction of the nth substance listed. Conditions: 323.15 K, 101 kPa, Liquid, Pycnometric method.

One may read the refractive index as a measure of how strongly the sample bends light. One may read the mass density as the mass of a sample divided by its volume.

Numbers after ± are expanded uncertainties.

In the case of `[Br-].[Br-].[Mg+2]` [magnesium bromide (MgBr2)] + O, the refractive index in data set [1] (w1 = 0.5202) came out at 1.462 ± 0.0013. For the same molecule, in data set [2] (w1 = 0.5202), the mass density is 1662.2 ± 9.3 kg/m3.

With `O=S(=O)([O-])[O-].[Mg+2]` [magnesium sulfate] + O, the refractive index in data set [1] (w1 = 0.338) amounted to 1.3982 ± 0.0012. The mass density in data set [2] (w1 = 0.338) turned out to be 1387.2 ± 2.1 kg/m3.
